Columns and labels:
[1] = tested on: mice; experiment: Earlier ethanol drinking studies with avermectins given alone; format: in vivo; conditions: for time from administration to time of significant reduction of ethanol intake: avermectin alone
Description: The altered function or expression of central nervous system (CNS) genes has long been considered a significant factor in contributing to the behavioral phenotype of alcoholism. By profiling gene expression in rodent strains undergoing multiple drinking paradigms, researchers have begun to identify potential candidate genes and pathways that may impart novel mechanistic information that drives the neurobiology of alcoholism.

[2] = tested on: mice; conditions: cited from earlier work

## CC[C@H](C)[C@H]1O[C@]2(CC[C@@H]1C)C[C@@H]1C[C@@H](C/C=C(\C)[C@@H](O[C@H]3C[C@H](OC)[C@@H](O[C@H]4C[C@H](OC)[C@@H](O)[C@H](C)O4)[C@H](C)O3)[C@@H](C)/C=C/C=C3\CO[C@@H]4[C@H](O)C(C)=C[C@@H](C(=O)O1)[C@]34O)O2 [IVM, ivermectin]
[1]
  time from administration to time of significant reduction of ethanol intake: 8 h
[1]; chronic administration
  effect of chronic administration on the reduction of ethanol intake (tolerance): did not significantly alter the reduction of ethanol intake
[1]; chronic administration, ethanol drinking studies
  toxicity or addictive liabilities: nor was any measured or observed obvious increase in toxicity or addictive liabilities
[2]; IVM alone, doses between 2.5 mg/kg and 10 mg/kg, mice models (Yardlet et al., 2012)
  voluntary ethanol intake: significant reduction in the voluntary ethanol intake
[2]; male and female mice, avermectin alone
  ethanol intake: significantly reduced ethanol intake

## CO/N=C1\C[C@]2(C[C@@H]3C[C@@H](C/C=C(\C)C[C@@H](C)/C=C/C=C4\CO[C@@H]5[C@H](O)C(C)=C[C@@H](C(=O)O3)[C@]45O)O2)O[C@H](/C(C)=C/C(C)C)[C@H]1C [MOX, moxidectin]
[1]
  time from administration to time of significant reduction of ethanol intake: 4 h
[1]; mouse, in vivo
  toxicity or addictive liabilities: nor was any measured or observed obvious increase in toxicity or addictive liabilities

From patent publication US11813276B2, “Compositions and methods for the treatment of AUD” (University of Southern California, priority 2020, dated 2023)
